The target of the experiment is T1, recombinant full-length USP7 (Homo sapiens, UniProt Q93009).
T1 construct: A 25 μl reaction volume containing recombinant full-length USP7 (62 pM)
Put plainly: USP7-mediated ubiquitin-rhodamine cleavage assay. It counts as biochemical. The conditions noted are these: recombinant full-length USP7 62 pM, ubiquitin-rhodamine 100 nM, 1 hour reaction at room temperature. The essentials:
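Compounds are first incubated with 62 pM enzyme for 30 min at room temperature in pH 7.3 HEPES buffer containing TCEP and BSA. Cleavage of 100 nM ubiquitin-rhodamine proceeds for 1 h before an acid quench, and IC50 is derived from fluorescence.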

Setting [1] is: 30-minute pre-incubation, read-out: Potency (USP7 IC50).
Where [2] appears, read: 30-minute incubation with compound, read-out: Potency: USP7 IC50.

The structures appear in SMILES notation. Counter-ions that a name gives are not always drawn. Like-named read-outs stand apart in the source and are kept apart here. Some results are limits rather than exact numbers.

T1 sequence (Q93009 whole entry): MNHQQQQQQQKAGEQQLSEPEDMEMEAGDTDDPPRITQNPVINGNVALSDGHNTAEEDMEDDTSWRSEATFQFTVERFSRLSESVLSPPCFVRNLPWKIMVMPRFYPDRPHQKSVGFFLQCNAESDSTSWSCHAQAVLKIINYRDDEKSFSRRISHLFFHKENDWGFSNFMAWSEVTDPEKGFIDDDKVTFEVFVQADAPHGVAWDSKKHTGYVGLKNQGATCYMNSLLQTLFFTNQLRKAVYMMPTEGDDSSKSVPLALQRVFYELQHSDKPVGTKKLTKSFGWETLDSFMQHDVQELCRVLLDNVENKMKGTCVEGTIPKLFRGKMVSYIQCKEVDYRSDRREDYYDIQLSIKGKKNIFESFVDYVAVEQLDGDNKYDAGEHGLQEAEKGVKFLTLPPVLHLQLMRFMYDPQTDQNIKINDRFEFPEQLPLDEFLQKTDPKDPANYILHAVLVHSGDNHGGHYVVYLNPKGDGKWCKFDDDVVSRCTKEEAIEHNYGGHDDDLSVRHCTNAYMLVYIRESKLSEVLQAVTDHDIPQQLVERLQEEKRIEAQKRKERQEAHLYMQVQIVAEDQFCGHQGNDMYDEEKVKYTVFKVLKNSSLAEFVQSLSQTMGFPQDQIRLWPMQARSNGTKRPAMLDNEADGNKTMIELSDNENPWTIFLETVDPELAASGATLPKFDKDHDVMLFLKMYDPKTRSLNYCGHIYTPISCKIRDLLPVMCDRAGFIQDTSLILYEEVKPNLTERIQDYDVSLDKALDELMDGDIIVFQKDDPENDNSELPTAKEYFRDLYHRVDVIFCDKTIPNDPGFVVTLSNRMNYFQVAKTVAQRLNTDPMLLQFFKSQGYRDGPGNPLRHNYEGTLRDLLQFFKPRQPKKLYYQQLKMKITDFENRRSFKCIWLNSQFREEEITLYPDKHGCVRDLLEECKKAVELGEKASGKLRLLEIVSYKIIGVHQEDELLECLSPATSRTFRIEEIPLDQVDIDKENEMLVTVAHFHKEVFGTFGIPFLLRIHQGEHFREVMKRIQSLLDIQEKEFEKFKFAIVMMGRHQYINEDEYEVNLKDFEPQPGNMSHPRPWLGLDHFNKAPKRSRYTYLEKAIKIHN

As usually defined, the IC50 is the point on the concentration scale where inhibition reaches its midpoint. As to `Cc1cc(Cl)cc(-c2ccnc3cc(Cn4c(=O)ccn(C)c4=O)sc23)c1O[C@@H]1CCNC[C@]1(C)F` [Example 544, 3-[[7-[5-chloro-2-[[(3S,4R)-3-fluoro-3-methyl-4-piperidyl]oxy]-3-methyl-phenyl]thieno[3,2-b]pyridin-2-yl]methyl]-1-methyl-pyrimidine-2,4-dione; 2,2,2-trifluoroacetic acid], the IC50 under setting [1] is < 1000 nM.
Take `Cc1cc(Cl)cc(-c2ccnc3cc(Cn4c(=O)ccn(CC(F)F)c4=O)sc23)c1O[C@H]1CCCNC1` [Example 284, 3-[[7-[5-chloro-3-methyl-2-[[(3S)-3-piperidyl]oxy]phenyl]thieno[3,2-b]pyridin-2-yl]methyl]-1-(2,2-difluoroethyl)pyrimidine-2,4-dione; 2,2,2-trifluoroacetic acid]: the IC50 under setting [2] was < 1000 nM.
For `Cc1cc(Cl)cc(-c2ccnc3cc(Cn4c(=O)ccn(CC(F)(F)F)c4=O)sc23)c1OC1CC(O)C1` (centres unmarked) [Example 678, 3-[[7-[5-chloro-2-(3-hydroxycyclobutoxy)-3-methyl-phenyl]thieno[3,2-b]pyridin-2-yl]methyl]-1-(2,2,2-trifluoroethyl)pyrimidine-2,4-dione], the IC50 (30-minute incubation, read-out: Potency (USP7 IC50)) is < 1000 nM.
As for `Cc1cc(Cl)cc(-c2ccnc3cc(Cn4c(=O)ccn(C)c4=O)sc23)c1OCC1CNC1` [Example 487, 3-[[7-[2-(azetidin-3-ylmethoxy)-5-chloro-3-methyl-phenyl]thieno[3,2-b]pyridin-2-yl]methyl]-1-methyl-pyrimidine-2,4-dione], the IC50 under setting [1] is < 1000 nM.
On to `Cc1cc(Cl)cc(-c2ccnc3cc(Cn4c(C(F)(F)F)cccc4=O)sc23)c1OC1CCNCC1` [Example 227, 1-((7-(5-Chloro-3-methyl-2-(piperidin-4-yloxy)phenyl)thieno[3,2-b]pyridin-2-yl)methyl)-6-(trifluoromethyl)pyridin-2(1H)-one], for which the IC50 under setting [2] was in the range of 10000 to 30000 nM.
In the case of `Cc1cc(Cl)cc(-c2ncnc3cc(CN4C(=O)C5C(C4=O)C5(C)C)sc23)c1O[C@@H]1CN(C)C[C@@H]1F` (stereo partly drawn) [Example 348, 3-[[4-[5-chloro-2-[(3R,4S)-4-fluoro-1-methyl-pyrrolidin-3-yl]oxy-3-methyl-phenyl]thieno[3,2-d]pyrimidin-6-yl]methyl]-6,6-dimethyl-3-azabicyclo[3.1.0]hexane-2,4-dione dihydrochloride], the IC50 under setting [2] is < 1000 nM.
As for `Cc1cc(Cl)cc(-c2ccnc3cc(CN4C(=O)CCC4=O)sc23)c1O[C@H]1C[C@H]2CC[C@@H](C1)N2` [Example 214, 1-((7-(2-(((1R,3r,5S)-8-Azabicyclo[3.2.1]octan-3-yl)oxy)-5-chloro-3-methylphenyl)thieno[3,2-b]pyridin-2-yl)methyl)pyrrolidine-2,5-dione], under setting [2], the IC50 was < 1000 nM.
On to `CCC(O)c1cc2nccc(-c3cccc(C)c3OC3CCNCC3)c2s1` (centres unmarked) [Example 172, 1-(7-(3-Methyl-2-(piperidin-4-yloxy)phenyl)thieno[3,2-b]pyridin-2-yl)propan-1-ol], for which, under setting [2], the IC50 was in the range of 10000 to 30000 nM.
On to `Cc1cc(Cl)cc(-c2ccnc3cc(Cn4c(=O)ccn(CC(F)(F)F)c4=O)sc23)c1O[C@H]1CCCN(C(=O)C(F)(F)F)C1` [Example 659, 3-[[7-[5-chloro-3-methyl-2-[[(3S)-1-(2,2,-trifluoroacetyl)-3-piperidyl]oxy]phenyl]thieno[3,2-b]pyridin-2-yl]methyl]-1-(2,2,2-trifluoroethyl)pyrimidine-2,4-dione], for which, under setting [1], the IC50 was < 1000 nM.
Consider `Cc1cc(Cl)cc(-c2ccnc3ccsc23)c1OCC1(C)CNC1` [Example 45, 7-(5-Chloro-3-methyl-2-((3-methylazetidin-3-yl)methoxy)phenyl)thieno[3,2-b]pyridine], for which, under setting [2], the IC50 is < 1000 nM.
Consider `Cc1cc(Cl)cc(-c2ccnc3cc(Cn4c(=O)ccn(CC(F)(F)F)c4=O)sc23)c1O[C@H]1CC[C@](C)(N2CCOCC2)C1` [Example 612, 3-[[7-[5-chloro-3-methyl-2-[(1S,3S)-3-methyl-3-morpholino-cyclopentoxy]phenyl]thieno[3,2-b]pyridin-2-yl]methyl]-1-(2,2,2-trifluoroethyl)pyrimidine-2,4-dione; 2,2,2-trifluoroacetic acid], for which the IC50 under setting [1] was < 1000 nM.

The values are drawn from patent publication US10722514B2 (FLX Bio, Inc., priority 2017, dated 2020).
